Legend:
[1] = tested on: ceramide, chitotriosidase (CHITO), GM3, GPNMB in CSF; test: Clinical study in GD-3 patients: exploratory CSF biomarkers; format: in vivo, human
Method: (§1) During the study patients were evaluated for safety and tolerability, CSF and plasma biomarkers (glucosylceramide, GL-1; glucosylsphingosine, lyso-GL1), pharmacokinetics, markers for systemic disease (spleen and liver volume measured by magnetic resonance imaging (MRI), platelet count, hemoglobin levels), indicia of interstitial lung disease (high resolution pulmonary computed tomography (CT)), and horizontal saccadic eye movement. In addition, exploratory biomarkers were quantified in CSF of GD3 patients: ceramide (the precursor of GL-1), chitotriosidase (CHITO), GM3, and GPNMB. Symptoms of ataxia were measured using the SARA scale, neurological symptoms were measured using the trail making test, and functional MRI was used to assess neural connectivity in the brain.
In addition, exploratory biomarkers were quantified in CSF of GD3 patients: ceramide (the precursor of GL-1), chitotriosidase (CHITO; an enzyme known to be elevated in GD patients), GM3 (a glycosphingolipid marker known to be elevated in GD patients), and GPNMB (glycoprotein nonmetastatic melanoma protein B, reportedly a biomarker of neuropathic GD3).

[2] = tested on: GM3 expression in B16 mouse melanoma cells; test: GM3 fluorescent-linked immunosorbent assay (FLISA), B16; format: cell-based; conditions: 48 hours
Excerpt: Inhibition of glucosylceramide synthase activity can be measured with one or more assays. A first assay is a microsomal assay that directly measures the conversion of ceramide to glucosylceramide by HPLC. Microsomes are a source of glucosylceramide synthase activity in the microsomal assay. A second assay is a cell based, phenotypic assay that monitors cell surface expression of the downstream lipid GM3 by antibody mediated immunofluorescence. Specific protocols are provided below.
This is a phenotypic assay that measures GM3 expression in B16 mouse melanoma or C32 human melanoma cells following treatment with test compounds. Cell surface GM3 expression is determined by antibody mediated fluorescence.
Compounds are diluted in media and plated in 384 well plates in DMSO. B16 and C32 cells are assayed at densities of 20,000 cells/ml and 62,500 cells/ml, respectively, per well. Each titration curve contains 10 points that are assayed in duplicate on each test run. The plates are incubated for 48 hours at 37° C., 5% CO2, and are then washed once with TBS. Anti-GM3 antibody is added to each well and the plates are then incubated for an additional one hour at room temperature. Plates are subsequently washed twice and incubated for an additional hour with the labeled secondary antibody. Following the final incubation, the plates are washed twice and the fluorescence at λex=D640/20 nm and λem=657 nm is detected on a fluorescent reader.
The results of the microsomal assays are expressed as “GCS IC50,” which represents the concentration of the compound causing 50% inhibition of glucosylceramide synthase activity. The results of the cell-based assays are expressed as “GM3 B16 IC50” or “GM3 C32 IC50” for the B16 assay and the C32 assay, respectively. These values represent the concentration of the compound causing 50% inhibition of GM3 expression on the cell surface.

[3] = tested on: adult patients with Gaucher disease Type 3; test: Clinical study in GD-3 patients: trail making test (TMT), Trail B minus Trail A time; format: in vivo, human; conditions: for TMT-A (s)-TMT-B (s), Average: screening 126 (n = 6)
Method: as §1
The trail making test (TMT) was used to evaluate cognitive function in the patients. The TMT is one of the most widely used neuropsychological tests and is included in most test batteries. The TMT is a diagnostic tool to assess general intelligence and cognitive dysfunctions (Tombaugh et al. [2004]; Cavaco et al. [2013]). In part A of the TMT (TMT-A), subjects are asked to connect a cluster of numbers in ascending order (Trail A). This task is a combination of visual search and general visual and motor processing speed. Part B (TMT-B) presents a sequence which alternates between numbers and letters (Trail B). Subjects must actively switch between both categories when connecting them in ascending, but alternating order.
TMT-A evaluates mainly perceptual and psychomotor speed. TMT-B assesses more specifically mental flexibility and shifting abilities. TMT-B minus TMT-A score is used to remove the variance attributable to the graphomotor and visual scanning components of TMT-A. This derived score reflects the unique task requirements of TMT-B.

[4] = tested on: adult patients with Gaucher disease Type 3; test: Clinical study in GD-3 patients: ataxia, SARA scale; format: in vivo, human; set-up: key to SARA Cumulative Score, Average Score excluding Patient 4 / SARA Cumulative Score / SARA Cumulative Score, Average Score: SARA, eight ataxia attributes summed, 0-40 scale; conditions: for SARA Cumulative Score: 15 mg/day + imiglucerase; for SARA Cumulative Score, Average Score: screening 2.83

CC(C)(NC(=O)O[C@@H]1CN2CCC1CC2)c1csc(-c2ccc(F)cc2)n1 [Compound 2, (S)-quinuclidin-3-yl 2-(2-(4-fluorophenyl)thiazol-4-yl)propan-2-ylcarbamate]
CSF concentrations of ceramide, CHITO, or GPNMB ([1]; After 52 weeks of treatment, N = 6): no significant changes | GM3 in CSF ([1]; four patients with measurable GM3 at baseline, at 4 weeks, 26 weeks, and 52 weeks): undetectable | IC50 [2]: 107 µM | patients with positive correlation between reduction of CSF GL-1 and TMT time ([3]; 52 weeks, 11 patients): 6 of 11 | Trail B minus Trail A time ([3]; Patient 1, Week 26, screening 13, 15 mg/day + imiglucerase): 21 s | Trail B minus Trail A time ([3]; Patient 1, Week 52, screening 13, 15 mg/day + imiglucerase): 16 s | TMT-A (s)-TMT-B (s), Change (%) from Baseline to Week 52 ([3]; Patient 1, 15 mg/day + imiglucerase): +23% | Trail B minus Trail A time ([3]; Patient 2, Week 26, screening 71, 15 mg/day + imiglucerase): 37 s | Trail B minus Trail A time ([3]; Patient 2, Week 52, screening 71, 15 mg/day + imiglucerase): 57 s | TMT-A (s)-TMT-B (s), Change (%) from Baseline to Week 52 ([3]; Patient 2, 15 mg/day + imiglucerase): −20% | Trail B minus Trail A time ([3]; Patient 3, Week 26, screening 72, 15 mg/day + imiglucerase): 56 s | Trail B minus Trail A time ([3]; Patient 3, Week 52, screening 72, 15 mg/day + imiglucerase): 20 s | TMT-A (s)-TMT-B (s), Change (%) from Baseline to Week 52 ([3]; Patient 3, 15 mg/day + imiglucerase): −72% | Trail B minus Trail A time ([3]; Patient 4, Week 52, screening 116, 15 mg/day + imiglucerase): 66 s | TMT-A (s)-TMT-B (s), Change (%) from Baseline to Week 52 ([3]; Patient 4, 15 mg/day + imiglucerase): −43% | TMT-A (s)-TMT-B (s), Change (%) from Baseline to Week 52 ([3]; Patient 5 (low Compound 2 exposure)): −3% | Trail B minus Trail A time ([3]; Patient 5 (low Compound 2 exposure), Week 26, screening 74): 60 s | Trail B minus Trail A time ([3]; Patient 5 (low Compound 2 exposure), Week 52, screening 74): 72 s | Trail B minus Trail A time ([3]; Patient 6, Week 26, screening 410, 15 mg/day + imiglucerase): 440 s | Trail B minus Trail A time ([3]; Patient 6, Week 52, screening 410, 15 mg/day + imiglucerase): 166 s | TMT-A (s)-TMT-B (s), Change (%) from Baseline to Week 52 ([3]; Patient 6, 15 mg/day + imiglucerase): −60% | Trail B minus Trail A time ([3]; Patient 7, Week 26, screening 86, 15 mg/day + imiglucerase): 83 s | Trail B minus Trail A time ([3]; Patient 7, Week 52, screening 86, 15 mg/day + imiglucerase): 110 s | TMT-A (s)-TMT-B (s), Change (%) from Baseline to Week 52 ([3]; Patient 7, 15 mg/day + imiglucerase): +28% | Trail B minus Trail A time ([3]; Patient 8, Week 26, screening 100, 15 mg/day + imiglucerase): 54 s | Trail B minus Trail A time ([3]; Patient 8, Week 52, screening 100, 15 mg/day + imiglucerase): 59 s | TMT-A (s)-TMT-B (s), Change (%) from Baseline to Week 52 ([3]; Patient 8, 15 mg/day + imiglucerase): −41% | Trail B minus Trail A time ([3]; Patient 9, Week 52, screening 59, 15 mg/day + imiglucerase): 75 s | TMT-A (s)-TMT-B (s), Change (%) from Baseline to Week 52 ([3]; Patient 9, 15 mg/day + imiglucerase): +27% | Trail B minus Trail A time ([3]; Patient 10, Week 26, screening 73, 15 mg/day + imiglucerase): 33 s | Trail B minus Trail A time ([3]; Patient 10, Week 52, screening 73, 15 mg/day + imiglucerase): 6 s | TMT-A (s)-TMT-B (s), Change (%) from Baseline to Week 52 ([3]; Patient 10, 15 mg/day + imiglucerase): −92% | Trail B minus Trail A time ([3]; Patient 11, Week 26, screening 18, 15 mg/day + imiglucerase): 48 s | Trail B minus Trail A time ([3]; Patient 11, Week 52, screening 18, 15 mg/day + imiglucerase): 32 s | TMT-A (s)-TMT-B (s), Change (%) from Baseline to Week 52 ([3]; Patient 11, 15 mg/day + imiglucerase): +78% | TMT-A (s)-TMT-B (s), Average Change (%) from Baseline to Week 52 ([3]; Patients 1-6): −29% | TMT-A (s)-TMT-B (s), Average ([3]; Week 26, n = 5): 123 (n = 5) s | patients exhibiting a TMT-A reduction ([3]; Week 52, Excluding Patient 5): four of five | patients exhibiting a TMT-B reduction ([3]; Week 52, Excluding Patient 5): five of five | patients exhibiting an improvement in Trail B minus Trial A ([3]; Week 52, Excluding Patient 5): four of five | mean improvement in Trail B minus Trial A ([3]; Week 52, Excluding Patient 5 (SD 37.6%)): −31.6% | mean improvement in Trail B minus Trial A ([3]; Week 52, Excluding Patient 5 (SD 99.3 s)): -71.4 s | patients exhibiting a reduction in the (TMT-B−TMT-A) time ([3]; Week 52, N = 6): 5 of 6 | patients with reduction in time taken to complete Trail A ([3]; Week 52, N = 6): Four of six | patients with reduction in time taken to complete Trail B ([3]; Week 52, N = 6): six of six | mean time taken to complete Trail A ([3]; Week 52, N = 6 (SD=55.2 s), baseline 67.8 s): 56.5 s | mean time taken to complete Trail B ([3]; Week 52, N = 6 (SD=91.8 s), baseline 193.8 s): 122.7 s | TMT-A (s)-TMT-B (s), Average ([3]; Week 52, n = 6): 66 (n = 6) s | drop in the (TMT-B−TMT-A) time ([3]; one of the new patients, 52 weeks): 92% | patients with positive correlation between reduction in CSF GL-1 and SARA score ([4]; 52 weeks, 11 patients): 8 of 11 | patients showing improvements in ataxia ([4]; 52 weeks, N = 6, 15 mg/day + imiglucerase): 5 of 6 | SARA Cumulative Score ([4]; Patient 1, Week 26, screening 3.0): 1.0 | SARA Cumulative Score ([4]; Patient 2, Week 26, screening 3.0): 2.0 | SARA Cumulative Score ([4]; Patient 2, Week 52, screening 3.0): 1.5 | SARA Cumulative Score ([4]; Patient 3, Week 26, screening 3.5): 0.0 | SARA Cumulative Score ([4]; Patient 3, Week 52, screening 3.5): 0.0 | SARA stance score ([4]; Patient 4, Week 26 (baseline 1)): 1 | SARA Cumulative Score ([4]; Patient 4, Week 26, screening 3.0): 5.0 | SARA stance score ([4]; Patient 4, Week 52 (baseline 1; left knee pain, injured toe)): 5 | SARA Cumulative Score ([4]; Patient 6, Week 26, screening 4.0): 2.0 | SARA Cumulative Score ([4]; Patient 6, Week 52, screening 4.0): 3.0 | SARA Cumulative Score ([4]; Patient 7, Week 26, screening 5.5): 7.5 | SARA Cumulative Score ([4]; Patient 7, Week 52, screening 5.5): 5.0 | SARA Cumulative Score ([4]; Patient 8, Week 26, screening 2.0): 0.5 | SARA Cumulative Score ([4]; Patient 8, Week 52, screening 2.0): 0 | SARA Cumulative Score ([4]; Patient 9, Week 26, screening 0.0): 0.0 | SARA Cumulative Score ([4]; Patient 9, Week 52, screening 0.0): 0.0 | SARA Cumulative Score ([4]; Patient 10, Week 26, screening 2.0): 2.0 | SARA Cumulative Score ([4]; Patient 10, Week 52, screening 2.0): 1.0 | SARA Cumulative Score ([4]; Patient 11, Week 26, screening 3.0): 3.0 | SARA Cumulative Score ([4]; Patient 11, Week 52, screening 3.0): 2.0 | SARA Cumulative Score, Average Score ([4]; Patients 1-6, Week 26): 1.67 | SARA Cumulative Score, Average Score ([4]; Patients 1-6, Week 52): 2.00 | SARA Cumulative Score, Average Score excluding Patient 4 ([4]; Week 26, screening 2.80): 1.00 | patients exhibiting an improvement in ataxia ([4]; Week 52, Excluding Patient 5): 4 out of 5 | patients exhibiting an improvement in ataxia ([4]; Week 52, five new patients excluding Patient 9): 4 out of 4 | gait on videotaped straight-line walk ([4]; two patients, week 26 and week 52 compared to baseline): steadier, better coordinated, and faster gait

Source: patent US12083115B2, “Methods for treating neurological symptoms associated with lysosomal storage diseases” (Genzyme Corporation, priority 2020, dated 2024)
